From patent US11826355B1, “Aspirin-mimetic antioxidants for treatment of age-related cataract” (priority 2022, dated 2023)
Values joined by “and” are separate entries in the source; they are usually repeats but may differ in a detail not shown here. Identical values can stand only once.

Legend:
[1] = tested on: Wistar rat cataract model induced by sodium selenite; test: Lens opacity score (slit lamp) in sodium selenite-induced cataract rat model; format: in vivo; design: lens opacity score, Mean / lens opacity score / lens opacity score, raw data per eye (OD/OS, rats 1-6): scale not given here
Method: A new batch of eye drops solutions was prepared every week. Placebo was a solution that contained the same excipients but without the drug compound. The eye drops solutions were prepared as follows:
3. An illustrative procedure: To a 250 mL volume flask were added 25 mg each of the excipients, sodium borate, boric acid, sodium chloride, and potassium chloride, an aspirin mimetic drug compound to be tested (e.g., DPL-004, 9.0 mg), and about 200 ml of sterilized water to form a mixture. The resultant mixture was shaken well to dissolve solids; and more sterilized water was added to bring the volume of solution to 250 mL, which was shaken well and then distributed into small portions. Each portion was labeled with a concentration of 3.6 mg/100 mL and the preparation date and was stored in a refrigerator for future use.
4. Eye drops solutions comprising DPL-004 at a concentration of 36 mg/100 mL and 12 mg/100 mL were prepared similarly according to the above procedure by using 90 mg and 30 mg of DPL-004, respectively, while maintaining the same amounts of excipients as shown above.
(§1) At the age of 11-12 days after birth, all suckling rats underwent a single intraperitoneal injection of sodium selenite (30 μmol/kg, i.e., 0.1 ml/10 g) for model-building. Sodium selenite solution was configured with normal saline at a concentration of 3 mM.
(§2) At the age of 19 days after birth (D-1) of the suckling rats, 30 lens opacities were selected for a cloudy rating at Class 4 or 5; Wister suckling rats were randomly divided into 5 groups (G1-G5 groups, 6 in each group); and a cage of suckling rats as G6 was randomly selected after the animals opened their eyes (14-16 days of age).
(§3) The subject suckling rats of groups G1 to G5 were treated at the age of 20 days after birth (D1), and the specific dosing information is shown in Table 1. Treatment in the G6 group was conducted after the animals opened their eyes (14-16 days old, D-6-D-4), and the specific dosing information is shown in Table 1.
At D-1, in the fourth week of treatment, the slit lamp was used at the end of administration to observe the turbidity of the lens and grade it, and the grading and scoring criteria are shown in the following Table 2.

[2] = Body weight of rats in the cataract model study; format: in vivo, rat; conditions: 10 μl 3 times/day
Method: as §1, §2, §3

[3] = General clinical observations during 60-day eye drop administration; format: in vivo, rat; conditions: eye drops 3 times/day, 60-day administration phase, all concentrations
Text: as §2

[4] = G3, 36 mg/0.1 L D1-D31 then 1.8 mg/0.1 L D32-D60, 10 μl 3 times/day, pH 6.5, day 60
[5] = G3, 36 mg/0.1 L, 10 μl 3 times/day, pH 6.5, day 28
[6] = G3, 36 mg/0.1 L, 10 μl 3 times/day, pH 6.5, day -1 (before administration)
[7] = G4, 12 mg/0.1 L, 10 μl 3 times/day, pH 6.5, day 28
[8] = G4, 12 mg/0.1 L, 10 μl 3 times/day, pH 6.5, day 60
[9] = G4, 12 mg/0.1 L, 10 μl 3 times/day, pH 6.5, day -1 (before administration)
[10] = G5, 3.6 mg/0.1 L, 10 μl 3 times/day, pH 6.5, day 28
[11] = G5, 3.6 mg/0.1 L, 10 μl 3 times/day, pH 6.5, day 60
[12] = G5, 3.6 mg/0.1 L, 10 μl 3 times/day, pH 6.5, day -1 (before administration)
[13] = G6 preventive dosing from D-6, 3.6 mg/0.1 L, 10 μl 3 times/day, pH 7.4, day 22
[14] = G6 preventive dosing from D-6, 3.6 mg/0.1 L, 10 μl 3 times/day, pH 7.4, day -1
[15] = G6 preventive dosing from D-6, 3.6 mg/0.1 L, 10 μl 3 times/day, pH 7.4, day -6
[16] = G6 preventive dosing from D-6, 3.6 mg/0.1 L, 10 μl 3 times/day, pH 7.4 to D31 then pH 6.0 D32-D60, day 60

In the case of `O=C(Sc1ccccc1C(=O)S)c1cccnc1` [DPL-004, 2-[(pyridine-3-carbonyl)sulfanyl]benzene-1-carbothioic S-acid], the “lens opacity score, Mean” value [1, 4] is reported as 2.75, the “lens opacity score, raw data per eye (OD/OS, rats 1-6)” value (“lens opacity score, raw data per eye” for short) [1, 4] is reported as 2 and 3 and 4 and the “lens opacity score, Mean” value [1, 5] is reported as 3.58. The “lens opacity score, raw data per eye” value [1, 5] was 3 and 4, the “lens opacity score, Mean” value [1, 6] was 4.00 and the “lens opacity score, raw data per eye” value [1, 6] was 4. For the same molecule, the “lens opacity score, Mean” value [1, 7] was 3.50, the “lens opacity score, raw data per eye” value [1, 7] was 3 and 4 and the “lens opacity score, Mean” value [1, 8] was 2.58. The “lens opacity score, raw data per eye” value [1, 8] was 2 and 3 and 4, the “lens opacity score, Mean” value [1, 9] was 4.00 and the “lens opacity score, raw data per eye” value [1, 9] was 4. For the same molecule, the “Efficacy (reduction of lens opacity score vs placebo G2)” value ([1]; G4, 12 mg/0.1 L, pH 6.5, D28) was 4.63%, the “Efficacy (reduction of lens opacity score vs placebo G2)” value ([1]; G4, 12 mg/0.1 L, pH 6.5, D60) was 14.0% and the “lens opacity score, Mean” value [1, 10] was 3.42. The “lens opacity score, raw data per eye” value [1, 10] was 4 and 3, the “lens opacity score, Mean” value [1, 11] was 2.58 and the “lens opacity score, raw data per eye” value [1, 11] was 3 and 4 and 2. For the same molecule, the “lens opacity score, Mean” value [1, 12] was 4.00, the “lens opacity score, raw data per eye” value [1, 12] was 4 and the “Efficacy (reduction of lens opacity score vs placebo G2)” value ([1]; G5, 3.6 mg/0.1 L, pH 6.5, D28) was 6.81%. The “Efficacy (reduction of lens opacity score vs placebo G2)” value ([1]; G5, 3.6 mg/0.1 L, pH 6.5, D60) was 14.0%, the lens opacity score ([1]; G6 early intervention, 3.6 mg/0.1 L, pH 7.4, in the period of 28 days) was 4.0 and the “lens opacity score, Mean” value [1, 13] was 4.00. For the same molecule, the “lens opacity score, raw data per eye” value [1, 13] was 4, the “lens opacity score, Mean” value [1, 14] was 4.00 and the “lens opacity score, raw data per eye” value [1, 14] was 4. For the same molecule, the “lens opacity score, Mean” value [1, 15] was 4.00, the “lens opacity score, raw data per eye” value [1, 15] was 4 and the “lens opacity score, Mean” value [1, 16] was 3.08. For the same molecule, the “lens opacity score, raw data per eye” value [1, 16] was 4 and 3 and 2, the “effect on cataract in the rat model (in words)” value ([1]; eye drops, rat model) was “gradually reversing cataracts” and the “Body Weight, Mean” value ([2]; G3, 36 mg/0.1 L (D32-D60 1.8 mg/0.1 L), pH 6.5, day 4) was 58.22 g. For the same molecule, the “Body Weight, Mean” value ([2]; G3, 36 mg/0.1 L (D32-D60 1.8 mg/0.1 L), pH 6.5, day 11) was 97.48 g, the “Body Weight, Mean” value ([2]; G3, 36 mg/0.1 L (D32-D60 1.8 mg/0.1 L), pH 6.5, day 18) was 130.98 g and the “Body Weight, Mean” value ([2]; G3, 36 mg/0.1 L (D32-D60 1.8 mg/0.1 L), pH 6.5, day 25) was 161.68 g. For the same molecule, the “Body Weight, Mean” value ([2]; G3, 36 mg/0.1 L (D32-D60 1.8 mg/0.1 L), pH 6.5, day 32) was 184.12 g, the “Body Weight, Mean” value ([2]; G3, 36 mg/0.1 L (D32-D60 1.8 mg/0.1 L), pH 6.5, day 39) was 210.05 g and the “Body Weight, Mean” value ([2]; G3, 36 mg/0.1 L (D32-D60 1.8 mg/0.1 L), pH 6.5, day 46) was 232.55 g. For the same molecule, the “Body Weight, Mean” value ([2]; G3, 36 mg/0.1 L (D32-D60 1.8 mg/0.1 L), pH 6.5, day 53) was 256.08 g, the “Body Weight, Mean” value ([2]; G3, 36 mg/0.1 L (D32-D60 1.8 mg/0.1 L), pH 6.5, day 60) was 273.13 g and the “Body Weight, Mean” value ([2]; G3, 36 mg/0.1 L (D32-D60 1.8 mg/0.1 L), pH 6.5, day -1 (before administration)) was 45.68 g. For the same molecule, the “Body Weight, Mean” value ([2]; G4, 12 mg/0.1 L, pH 6.5, day 4) was 59.37 g, the “Body Weight, Mean” value ([2]; G4, 12 mg/0.1 L, pH 6.5, day 11) was 98.03 g and the “Body Weight, Mean” value ([2]; G4, 12 mg/0.1 L, pH 6.5, day 18) was 138.57 g. The “Body Weight, Mean” value ([2]; G4, 12 mg/0.1 L, pH 6.5, day 25) was 166.05 g, the “Body Weight, Mean” value ([2]; G4, 12 mg/0.1 L, pH 6.5, day 32) was 188.40 g and the “Body Weight, Mean” value ([2]; G4, 12 mg/0.1 L, pH 6.5, day 39) was 209.05 g. For the same molecule, the “Body Weight, Mean” value ([2]; G4, 12 mg/0.1 L, pH 6.5, day 46) was 232.02 g, the “Body Weight, Mean” value ([2]; G4, 12 mg/0.1 L, pH 6.5, day 53) was 240.18 g and the “Body Weight, Mean” value ([2]; G4, 12 mg/0.1 L, pH 6.5, day 60) was 269.85 g. For the same molecule, the “Body Weight, Mean” value ([2]; G4, 12 mg/0.1 L, pH 6.5, day -1 (before administration)) was 46.10 g, the “Body Weight, Mean” value ([2]; G5, 3.6 mg/0.1 L, pH 6.5, day 4) was 60.25 g and the “Body Weight, Mean” value ([2]; G5, 3.6 mg/0.1 L, pH 6.5, day 11) was 101.48 g. For the same molecule, the “Body Weight, Mean” value ([2]; G5, 3.6 mg/0.1 L, pH 6.5, day 18) was 149.00 g, the “Body Weight, Mean” value ([2]; G5, 3.6 mg/0.1 L, pH 6.5, day 25) was 188.37 g and the “Body Weight, Mean” value ([2]; G5, 3.6 mg/0.1 L, pH 6.5, day 32) was 230.95 g. The “Body Weight, Mean” value ([2]; G5, 3.6 mg/0.1 L, pH 6.5, day 39) was 257.97 g, the “Body Weight, Mean” value ([2]; G5, 3.6 mg/0.1 L, pH 6.5, day 46) was 304.65 g and the “Body Weight, Mean” value ([2]; G5, 3.6 mg/0.1 L, pH 6.5, day 53) was 323.03 g. The “Body Weight, Mean” value ([2]; G5, 3.6 mg/0.1 L, pH 6.5, day 60) was 343.05 g, the “Body Weight, Mean” value ([2]; G5, 3.6 mg/0.1 L, pH 6.5, day -1 (before administration)) was 45.40 g and the “Body Weight, Mean” value ([2]; G6 preventive dosing from D-6, 3.6 mg/0.1 L, pH 7.4 (D32-D60 pH 6.0), day 4) was 62.15 g. For the same molecule, the “Body Weight, Mean” value ([2]; G6 preventive dosing from D-6, 3.6 mg/0.1 L, pH 7.4 (D32-D60 pH 6.0), day 11) was 106.70 g, the “Body Weight, Mean” value ([2]; G6 preventive dosing from D-6, 3.6 mg/0.1 L, pH 7.4 (D32-D60 pH 6.0), day 18) was 140.92 g and the “Body Weight, Mean” value ([2]; G6 preventive dosing from D-6, 3.6 mg/0.1 L, pH 7.4 (D32-D60 pH 6.0), day 25) was 171.78 g. For the same molecule, the “Body Weight, Mean” value ([2]; G6 preventive dosing from D-6, 3.6 mg/0.1 L, pH 7.4 (D32-D60 pH 6.0), day 32) was 211.43 g, the “Body Weight, Mean” value ([2]; G6 preventive dosing from D-6, 3.6 mg/0.1 L, pH 7.4 (D32-D60 pH 6.0), day 39) was 251.03 g and the “Body Weight, Mean” value ([2]; G6 preventive dosing from D-6, 3.6 mg/0.1 L, pH 7.4 (D32-D60 pH 6.0), day 46) was 283.27 g. For the same molecule, the “Body Weight, Mean” value ([2]; G6 preventive dosing from D-6, 3.6 mg/0.1 L, pH 7.4 (D32-D60 pH 6.0), day 53) was 303.65 g, the “Body Weight, Mean” value ([2]; G6 preventive dosing from D-6, 3.6 mg/0.1 L, pH 7.4 (D32-D60 pH 6.0), day 60) was 330.03 g and the “Body Weight, Mean” value ([2]; G6 preventive dosing from D-6, 3.6 mg/0.1 L, pH 7.4 (D32-D60 pH 6.0), day -1) was 45.27 g. The “Body Weight, Mean” value ([2]; G6 preventive dosing from D-6, 3.6 mg/0.1 L, pH 7.4 (D32-D60 pH 6.0), day -6) was 35.83 g and the “abnormal symptoms (activity status, body weight, skin hair, secretion morphology and color)” value [3] was “no abnormal symptoms”.
